Among the data in ChEMBL document CHEMBL6074642, “Natural and Bioinspired Lipidic Alkynylcarbinols as Leishmanicidal, Antiplasmodial, Trypanocidal, Fungicidal, Antibacterial, and Antimycobacterial Agents” (J Nat Prod, 2024) are MIC values, retold here.

The experiment deals with Mycobacterium tuberculosis. Description: Antibacterial activity against multi-drug resistant Mycobacterium tuberculosis assessed as reduction in microbial growth. In kind it is functional.

Take `C=C[C@@H](O)C#CC#C[C@@H](O)/C=C\CCCCCCC` [FALCARINDIOL]: the minimal inhibitory concentration (MIC) – broadly, the lowest concentration that inhibits growth of the organism – was 32 mg/L.
